The target in test [1] is T1, SARS-CoV-2 PLpro (nsp3 1564–1878) (Severe acute respiratory syndrome coronavirus 2, UniProt P0DTD1). The experiment in a line: biochemical. Also noted: FRET-quenched peptide (Pro3) cleavage by PLpro, 10 min pre-incubation, slope over 20 min, normalised to no-compound control. As to conditions: low concentration screen, read-out: % of control remaining.
Test [2] concerns the target T1, SARS-CoV-2 PLpro (nsp3 1564–1878). Nature of the test: biochemical. On the set-up: FRET-quenched peptide (Pro3) cleavage by PLpro, 10 min pre-incubation, slope over 20 min, normalised to no-compound control. As to conditions: high concentration screen, read-out: % of control remaining.

Counter-ions that a name gives are not always drawn. Like-named read-outs stand apart in the source and are kept apart here.

This is an account of results in article PMC8286840, “Identifying SARS-CoV-2 antiviral compounds by screening for small molecule inhibitors of Nsp3 papain-like protease” (Biochemical Journal, 2021).

For `CCCCCC(O)CCCC(=O)O` (stereo not drawn) [5-hydroxydecanoic acid sodium], the remaining activity at 1.25 µM in test [1] (Well no.=714) amounted to 88.7%. The remaining activity at 3.75 µM in test [2] (Well no.=714) is 85.9%.

As for `COc1ccc(Cl)cc1C(=O)NCCc1ccc(S(=O)(=O)NC(=O)NC2CCCCC2)cc1` [Glyburide], the remaining activity at 1.25 µM in test [1] (Well no.=1806) came out at 96.5%. Moreover, the remaining activity at 3.75 µM in test [2] (Well no.=1806) worked out at 97.3%.

`CNC(=O)c1cc2c(cn1)[nH]c1ccccc12` [N-Methyl-beta-carboline-3-carboxamide]: the remaining activity at 1.25 µM in test [1] (Well no.=655) stood at 96.4%. The remaining activity at 3.75 µM in test [2] (Well no.=655) was found to be 94.2%.

As to `NCCNC(=O)c1ccc(Cl)cc1` [Ro 16-6491 hydrochloride], the remaining activity at 1.25 µM in test [1] (Well no.=1448) came to 94.7%. In addition, in test [2] (Well no.=1448), the remaining activity at 3.75 µM was determined as 92.5%.

Take `CCc1cc(Nc2nccc(-c3c(-c4ccc(OC)c(C(=O)Nc5c(F)cccc5F)c4)nc4ccccn34)n2)c(OC)cc1N1CCC(N2CCN(S(C)(=O)=O)CC2)CC1` [GSK1904529A]: the remaining activity at 1.25 µM in test [1] (Well no.=5013) worked out at 89.7%. In test [2] (Well no.=5013), the remaining activity at 3.75 µM amounted to 89.5%.

Consider `CCn1ccnc1CC1COc2ccccc2O1` (stereo not drawn) [Imiloxan hydrochloride], for which, in test [1] (Well no.=1063), the remaining activity at 1.25 µM was 97.9%. Moreover, the remaining activity at 3.75 µM in test [2] (Well no.=1063) stood at 97%.

Regarding `CC(=O)O[C@H]1CC[C@@]2(C)C(=CC[C@@H]3[C@@H]2CC[C@]2(C)C(c4cccnc4)=CC[C@@H]32)C1` [Abiraterone Acetate (CB7630)], the remaining activity at 1.25 µM in test [1] (Well no.=5274) is 88.4%. The remaining activity at 3.75 µM in test [2] (Well no.=5274) stood at 79.5%.

For `Nc1ccn([C@H]2CC[C@@H](CO)O2)c(=O)n1` [Zalcitabine], the remaining activity at 1.25 µM in test [1] (Well no.=7856) was determined as 92.9%. In addition, the remaining activity at 3.75 µM in test [2] (Well no.=7856) worked out at 98.9%.

For `N[C@@H](Cc1c[nH]c2ccc(O)cc12)C(=O)O` [5-Hydroxy-L-tryptophan], in test [1] (Well no.=712), the remaining activity at 1.25 µM worked out at 91.8%. Besides, the remaining activity at 3.75 µM in test [2] (Well no.=712) stood at 98.5%.

Regarding `NC(=O)N1c2ccccc2CC(=O)c2ccccc21` [Oxcarbazepine], the remaining activity at 1.25 µM in test [1] (Well no.=2053) was found to be 103%. Also, in test [2] (Well no.=2053), the remaining activity at 3.75 µM came to 104%.

Regarding `OCCOCCN1CCN(C(c2ccccc2)c2ccc(Cl)cc2)CC1` (stereo not drawn) [Hydroxyzine 2HCl], the remaining activity at 1.25 µM in test [1] (Well no.=5082) came out at 98.5%. Also, the remaining activity at 3.75 µM in test [2] (Well no.=5082) worked out at 99.9%.

In the case of `COc1cccc2c1C(=O)c1c(O)c3c(c(O)c1C2=O)C[C@@](O)(C(=O)CO)C[C@@H]3O[C@H]1C[C@H](N)[C@H](O)[C@H](C)O1` [Doxorubicin.HCl], the remaining activity at 1.25 µM in test [1] (Well no.=1710) was 98.5%; in test [1] (Well no.=3235), 105%. Moreover, the remaining activity at 3.75 µM in test [2] (Well no.=1710) came out at 100%; in test [2] (Well no.=3235), 105%.

As for `CCC1(c2c[nH]cn2)Cc2ccccc2C1` [Atipamezole], in test [1] (Well no.=6663), the remaining activity at 1.25 µM stood at 101%. Besides, the remaining activity at 3.75 µM in test [2] (Well no.=6663) is 101%.

For `COc1ccc(N2C(=O)/C(=C\c3ccc([N+](=O)[O-])s3)SC2=S)cc1` [CCF642], the remaining activity at 1.25 µM in test [1] (Well no.=8774) stood at 93.3%. Further, the remaining activity at 3.75 µM in test [2] (Well no.=8774) is 93.7%.

`C=CC[N+](C)(C)c1ccc(CCC(=O)CCc2ccc([N+](C)(C)CC=C)cc2)cc1` [BW 284c51]: the remaining activity at 1.25 µM in test [1] (Well no.=152) was determined as 98.6%. Further, in test [2] (Well no.=152), the remaining activity at 3.75 µM was 101%.

In the case of `CC[C@H](C)C(=O)O[C@H]1C[C@H](O)C=C2C=C[C@H](C)[C@H](CC[C@@H](O)C[C@@H](O)CC(=O)O)[C@H]21` [Pravastatin sodium salt hydrate], the remaining activity at 1.25 µM in test [1] (Well no.=5462) is 96.8%. Moreover, the remaining activity at 3.75 µM in test [2] (Well no.=5462) was 97.8%.

With `CNC(=O)c1ccc(C)c(-n2c(C)cc(OCc3ccc(F)cc3F)c(Br)c2=O)c1` [PH-797804], the remaining activity at 1.25 µM in test [1] (Well no.=4695) amounted to 104%. In addition, the remaining activity at 3.75 µM in test [2] (Well no.=4695) is 104%.

Consider `C=C[C@H]1CN2CC[C@H]1C[C@H]2[C@H](O)c1ccnc2ccccc12` [(-)-Cinchonidine], for which the remaining activity at 1.25 µM in test [1] (Well no.=3196) turned out to be 101%. The remaining activity at 3.75 µM in test [2] (Well no.=3196) is 102%.

In the case of `Cc1cc(Cl)ccc1OCCCC(=O)NO` [Droxinostat], the remaining activity at 1.25 µM in test [1] (Well no.=5239) came out at 101%. In test [2] (Well no.=5239), the remaining activity at 3.75 µM was determined as 96.2%.

Take `COc1ccc(CC2NCCc3cc(OC)c(OC)cc32)cc1OC` (stereo not drawn) [Tetrahydropapaverine HCl]: in test [1] (Well no.=8290), the remaining activity at 1.25 µM was 99.5%. In addition, in test [2] (Well no.=8290), the remaining activity at 3.75 µM was found to be 98%.

For `CN(C)CCCN1c2ccccc2CCc2ccccc21` [Imipramine hydrochloride], the remaining activity at 1.25 µM in test [1] (Well no.=1061) was found to be 100%. Also, the remaining activity at 3.75 µM in test [2] (Well no.=1061) came to 97.7%.

In the case of `Nc1ncnc2c1C(=O)N(c1ccc(C3CCC(CC(=O)O)CC3)cc1)CCO2` (stereo not drawn) [{4-[4-(4-amino-5-oxo-7,8-dihydropyrimido[5,4-f][1,4]oxazepin-6(5H)-yl)phenyl]cyclohexyl}acetic acid], the remaining activity at 1.25 µM in test [1] (Well no.=5830) stood at 105%. Besides, the remaining activity at 3.75 µM in test [2] (Well no.=5830) is 103%.

In the case of `CNC(=O)c1ccc(N2C(=S)N(c3ccc(C#N)c(C(F)(F)F)c3)C(=O)C2(C)C)cc1F` [MDV3100 (Enzalutamide)], the remaining activity at 1.25 µM in test [1] (Well no.=4759) came to 102%. Also, in test [2] (Well no.=4759), the remaining activity at 3.75 µM stood at 104%.

As for `NC(Cc1ccc(O)c(O)c1)C(=O)O` (racemic) [DL-Dopa], the remaining activity at 1.25 µM in test [1] (Well no.=6391) was found to be 106%. Moreover, the remaining activity at 3.75 µM in test [2] (Well no.=6391) stood at 107%.

Regarding `COc1ccc(C[C@H](C)NC[C@@H](O)c2ccc(O)c(NC=O)c2)cc1` [Formoterol (Fumarate)], the remaining activity at 1.25 µM in test [1] (Well no.=6413) amounted to 101%. Besides, the remaining activity at 3.75 µM in test [2] (Well no.=6413) was 95.1%.

Turning to `CCCCCCCC/C=C\CCCCCCCCOC[C@H](COP(=O)([O-])OCC[N+](C)(C)C)OC(C)=O` [PAF C18:1], the remaining activity at 1.25 µM in test [1] (Well no.=4453) came to 99.9%. Further, in test [2] (Well no.=4453), the remaining activity at 3.75 µM is 99.9%.

With `COc1ccc2cc1Oc1ccc(cc1)C[C@H]1c3cc(c(OC)cc3CCN1C)Oc1c(OC)c(OC)cc3c1[C@@H](C2)N(C)CC3` [Isotetrandrine], the remaining activity at 1.25 µM in test [1] (Well no.=3365) is 100%. Besides, in test [2] (Well no.=3365), the remaining activity at 3.75 µM amounted to 98.1%.

Regarding `C/N=C(/NC#N)NCCSCc1csc(NC(=N)N)n1` [Tiotidine], in test [1] (Well no.=1877), the remaining activity at 1.25 µM is 98.5%. The remaining activity at 3.75 µM in test [2] (Well no.=1877) is 98.9%.

As to `Cc1cc(C(=O)O)ccc1O` [4-Hydroxy-3-methylbenzoic acid], in test [1] (Well no.=6723), the remaining activity at 1.25 µM is 100%. Besides, the remaining activity at 3.75 µM in test [2] (Well no.=6723) came to 101%.

With `C[N+](C)(C)CCCCCCCCCC[N+](C)(C)C` [Decamethonium], the remaining activity at 1.25 µM in test [1] (Well no.=1554) is 97.2%. Further, the remaining activity at 3.75 µM in test [2] (Well no.=1554) turned out to be 100%.

Turning to `CCCCCCCC/C=C/CCCCCCCC(=O)O` [Elaidic acid], the remaining activity at 1.25 µM in test [1] (Well no.=7259) is 96%. For the same compound, in test [2] (Well no.=7259), the remaining activity at 3.75 µM came out at 87.3%.

On to `C1=C2CCCN[C@H]2[C@@H]2C[C@H]1[C@H]1CCCCN1C2` [Aloperine], for which the remaining activity at 1.25 µM in test [1] (Well no.=5240) amounted to 94.5%. In addition, the remaining activity at 3.75 µM in test [2] (Well no.=5240) was 94%.
